How the values were obtained:
Assay type in all cases: cell-based, human
[1] = test system: SH-SY5Y cells; test: MTT assay, Aβ40 induced cytotoxicity; conditions: Aβ40 10 μM, 24 h
Experimental: 1.3. Methods for in vitro cell-based experiments
The human neuroblastoma cell line SH-SY5Y was obtained from the National Centre for Cell Science (NCCS, Pune, India). The cells were grown in DMEM, and Ham’s F12 nutrient mixture (DMEM/F12; 1:1) supplemented with 10% fetal bovine serum (FBS; Gibco, USA), 50 U/ml penicillin, 100 μg/ml streptomycin and incubated in a humidified atmosphere of 5% CO2 at 37°C. All experiments were carried […]
Each experiment was performed
Methylthiazol tetrazolium (MTT) reduction assay was used to measure the viability of cells.10 The SH-SY5Y cells were seeded at a density of 1.5 × 10^4 cells/well in a 96 well plate. To assess self-toxicity, cells […]
period 20µl of MTT reagent (5mg/ml in DPBS) was added to each well and incubated in a humidified atmosphere of 5% CO2 at 37°C for 4h. Formazan crystals (purple) are formed by the metabolically active cells by cleaving the yellow tetrazolium salt. After the incubation period, the MTT solution was aspirated, and 150µL of dimethyl sulfoxide (DMSO) was added to each well to dissolve the formazan precipitate.

[2] = test system: SH-SY5Y cells; test: LDH release assay, Aβ40 induced membrane damage; conditions: Aβ40 10 μM, 24 h
Experimental: Then, we explored the membrane damage induced by Aβ40 (ref. [45] and [46]) using the lactate dehydrogenase (LDH) assay.
The release of cytosolic enzyme lactate dehydrogenase (LDH) into the culture medium indicates cell death due to the disruption of membrane integrity. Cell deathwas assessed by measuring LDH release in the culture medium by photocolorimetric kit according to the manufacturer’s protocol (Abcam, Cambridge, MA, USA). An increase in the number of lysed cell increases LDH activity in the culture medium proportionately. […]
Next, 50 µl culture supernatant was collected from each well and added to an assay mixture that was prepared by adding an equal amount of LDH substrate, co-factors, and dye solutions and incubated in the dark for 40mins at 37°C. […] Absorbance was measured at 490 nm with a reference filter of 660nm. […]
Generation of intracellular reactive oxygen species was measured by a spectrofluorimetric method using peroxide sensitive fluorescent probe 2′,7′-Dichlorofluorescin diacetate (DCFH-DA).11 In brief, SH-SY5Y […]
or both for 24h. […] Cells were then washed twice with PBS, and fluorescent intensity was measured by using a fluorescence microplate reader (Bio Rad, CA, USA) with an excitation filter of 490 nm and an emission filter of 520 nm.

[3] = test system: cleaved caspase-3; test: Western blot, cleaved caspase-3
Experimental: e. Measurement of intracellular calcium (Ca 2+)
Ca2+sensitive dye Fura-2AM was used to measure free intracellular Ca2+level in SH-SY5Y cell suspension by the previously described method.12 Following treatment with the respective drug, Fura-2 AM (Cayman, USA) at a concentration of 5 µM was added to the culture medium and incubated at 37°C for 45 min. Next, Krebs-Ringer-HEPES (KRH) buffer (135mM NaCl, 5mM KCl, 1mM MgSO4, 0.4mM KH2PO4, 1mM CaCl2, 5.5mM glucose, 20mM HEPES, pH 7.4) was used to wash each plate twice containing (1×10^6cells). Fluorescent microplate reader (FLX 800, Biotek, USA) was used to measure the fluorescence intensity with an excitation and emission spectra of […], respectively. Results are Mean±SEM of quadruplicate measurements from three separate experiments and expressed in the increase in percent relative fluorescent unit (RFU) relative to the baseline reading.
Western blot analysis was performed to measure Bax, Bcl-2, cleaved Caspase 9 and cleaved Caspase 3, pro and anti-apoptotic proteins expression. About 5× 10^6 cells were washed with PBS twice following […]
overnight. […] The optical density (OD) value of each band was analyzed by the electrophoresis image analysis system (Smartview 2001, S/N: SV-0002202, Japan) and normalized against the corresponding β-actin band. […]

Aβ40: commercially available Aβ40 peptide
cell population after Aβ40 alone [1]: significant reduction in the cell population | LDH release by Aβ40 alone [2]: released a significant amount of cytosolic LDH | caspase-3 activation by Aβ40 alone [3]: leads to activation of caspase-3 directed DNA breakage, nuclear chromatin condensation, and neurocellular apoptosis

Reference: publication PMC8179358, “An explicitly designed paratope of amyloid-β prevents neuronal apoptosis in vitro and hippocampal damage in rat brain” (Chemical Science, 2020)
